According to patent US20130203805A1, “Methods for treating anemia using inhibitors of hypoxia-inducible factor (HIF) hydroxylase” (FIBROGEN, INC., priority 2001, published 2013):

System: erythropoietin transcript
Experiment: Erythropoietin transcript in tissues by Murine genome U74AV2 array (Example 7)
Type: in vivo, male Swiss Webster mice
Conditions: mice
Description: Twenty-five male Swiss Webster mice (35-38 g) were obtained from Simonson, Inc., and treated by oral gavage […] for 2.5 days (5 doses) with a 4 ml/kg volume of either 0.5% carboxymethyl cellulose (CMC; Sigma-Aldrich, St. Louis Mo.) (0 mg/kg/day), compound C at 30 or 100 mg/kg/day […], or blood was collected daily from animals as described above to induce anemia. Blood samples were collected and kidney, liver, brain, lung, heart, and skeletal muscle tissues were harvested and processed as for Example 2, Experiment I (supra).
RNA isolation was carried out using the following protocol. A 50 mg section of each organ was diced, 875 μl of RLT buffer (RNEASY kit; Qiagen Inc., Valencia Calif.) was added, and the pieces were homogenized for about 20 seconds using a rotor-stator POLYTRON homogenizer (Kinernatica, Inc., Cincinnati Ohio). The homogenate was micro-centrifuged for 3 minutes to pellet insoluble material, the supernatant was transferred to a new tube and RNA was isolated using an RNEASY kit (Qiagen) according to the manufacturer's instructions. The RNA was eluted into 80 μL of water and quantitated with RIBOGREEN reagent (Molecular Probes, Eugene Oreg.). Genomic DNA was then removed from the RNA using a DNA-FREE kit (Ambion Inc, Austin Tex.) according to the manufacturer's instructions. The absorbance at 260 and 280 nm was measured to determine RNA purity and concentration.
RNA was precipitated in 0.3 M sodium acetate (pH 5.2), 50 ng/ml glycogen, and 2.5 volumes of ethanol for one hour at −20° C. Samples were centrifuged and pellets were washed with cold 80% ethanol, dried, and resuspend in water. Double stranded cDNA was synthesized using a T7-(dT)24 first strand primer (Affymetrix, Inc., Santa. Clara Calif.) and the […] CHOICE system (Invitrogen) according to the manufacturer's instructions. The final cDNA was extracted with an equal volume of 25:24:1 phenol:chloroform:isoamyl alcohol using a PHASE LOCK GEL insert (Brinkman, Inc., Westbury N.Y.). The aqueous phase was collected and cDNA was precipitated using 0.5 volumes of 7.5 M ammonium acetate and 2.5 volumes of ethanol. Alternatively, cDNA was purified using the […] sample cleanup module (Affymetrix) according to the manufacturer's instructions. […]
Hybridization cocktail was prepared by bringing 5 μg probe to 100 μl in 1× hybridization buffer (100 mM MES, 1 M [Na^+], 20 mM EDTA, 0.01% Tween 20), 100 μg/ml herring sperm DNA, 500 μg/ml acetylated BSA, 0.03 nM control oligo B2 (Affymetrix), and 1× […] eukaryotic hybridization control (Affymetrix). […] Arrays were analyzed using a […] scanner (Affymetrix) and Microarray Suite software (Affymetrix). […]

[1] = 30 or 100 mg/kg/day oral gavage for 4 days, FIG. 6

O=C(O)CNC(=O)c1nc(Cl)c2ccccc2c1O [Compound C, [(1-chloro-4-hydroxy-isoquinoline-3-carbonyl)-amino]-acetic acid]
erythropoietin transcript, brain [1]: dose-dependent increase
erythropoietin transcript, kidney [1]: dose-dependent increase
erythropoietin transcript, liver [1]: dose-dependent increase
level of expression versus transcription seen with bleed-induced anemia in the same tissue (brain, kidney, liver, 30 or 100 mg/kg/day oral gavage): equivalent to or exceeded
